The values that follow come from ChEMBL document CHEMBL2074528, “Canalicular multispecific organic anion transporter/multidrug resistance protein 2 mediates low-affinity transport of reduced glutathione” (Biochem J, 1999).

One data set has as its target MRP2 (ABCC2) (Homo sapiens, UniProt Q92887). The data set is described as follows: in vitro. As to conditions: dog, membrane vesicles from MRP2-expressing MDCK cells, probe DNP-SG.
Substrate in data set [1]: N[C@@H](CCC(=O)N[C@H](CSc1ccc([N+](=O)[O-])cc1[N+](=O)[O-])C(=O)NCC(=O)O)C(=O)O
Nature of the data set: TP_TRANSPORTER: uptake in membranes from MRP2-expressing MDCK cells. Type of data set: functional, cell membranes, MDCK-II, Membrane.

With `N[C@@H](CCC(=O)N[C@@H](CS)C(=O)NCC(=O)O)C(=O)O` [GLUTATHIONE], at MRP2 (ABCC2), the activity at 15 mM is 51%.

B1: ATP-binding cassette sub-family C member 2 (Homo sapiens) (protein)
chain: MLEKFCNSTFWNSSFLDSPEADLPLCFEQTVLVWIPLGYLWLLAPWQLLHVYKSRTKRSSTTKLYLAKQVFVGFLLILAAIELALVLTEDSGQATVPAVRYTNPSLYLGTWLLVLLIQYSRQWCVQKNSWFLSLFWILSILCGTFQFQTLIRTLLQGDNSNLAYSCLFFISYGFQILILIFSAFSENNESSNNPSSIASFLSSITYSWYDSIILKGYKRPLTLEDVWEVDEEMKTKTLVSKFETHMKRELQKARRALQRRQEKSSQQNSGARLPGLNKNQSQSQDALVLEDVEKKKKKSGTKKDVPKSWLMKALFKTFYMVLLKSFLLKLVNDIFTFVSPQLLKLLISFASDRDTYLWIGYLCAILLFTAALIQSFCLQCYFQLCFKLGVKVRTAIMASVYKKALTLSNLARKEYTVGETVNLMSVDAQKLMDVTNFMHMLWSSVLQIVLSIFFLWRELGPSVLAGVGVMVLVIPINAILSTKSKTIQVKNMKNKDKRLKIMNEILSGIKILKYFAWEPSFRDQVQNLRKKELKNLLAFSQLQCVVIFVFQLTPVLVSVVTFSVYVLVDSNNILDAQKAFTSITLFNILRFPLSMLPMMISSMLQASVSTERLEKYLGGDDLDTSAIRHDCNFDKAMQFSEASFTWEHDSEATVRDVNLDIMAGQLVAVIGPVGSGKSSLISAMLGEMENVHGHITIKGTTAYVPQQSWIQNGTIKDNILFGTEFNEKRYQQVLEACALLPDLEMLPGGDLAEIGEKGINLSGGQKQRISLARATYQNLDIYLLDDPLSAVDAHVGKHIFNKVLGPNGLLKGKTRLLVTHSMHFLPQVDEIVVLGNGTIVEKGSYSALLAKKGEFAKNLKTFLRHTGPEEEATVHDGSEEEDDDYGLISSVEEIPEDAASITMRRENSFRRTLSRSSRSNGRHLKSLRNSLKTRNVNSLKEDEELVKGQKLIKKEFIETGKVKFSIYLEYLQAIGLFSIFFIILAFVMNSVAFIGSNLWLSAWTSDSKIFNSTDYPASQRDMRVGVYGALGLAQGIFVFIAHFWSAFGFVHASNILHKQLLNNILRAPMRFFDTTPTGRIVNRFAGDISTVDDTLPQSLRSWITCFLGIISTLVMICMATPVFTIIVIPLGIIYVSVQMFYVSTSRQLRRLDSVTRSPIYSHFSETVSGLPVIRAFEHQQRFLKHNEVRIDTNQKCVFSWITSNRWLAIRLELVGNLTVFFSALMMVIYRDTLSGDTVGFVLSNALNITQTLNWLVRMTSEIETNIVAVERITEYTKVENEAPWVTDKRPPPDWPSKGKIQFNNYQVRYRPELDLVLRGITCDIGSMEKIGVVGRTGAGKSSLTNCLFRILEAAGGQIIIDGVDIASIGLHDLREKLTIIPQDPILFSGSLRMNLDPFNNYSDEEIWKALELAHLKSFVASLQLGLSHEVTEAGGNLSIGQRQLLCLGRALLRKSKILVLDEATAAVDLETDNLIQTTIQNEFAHCTVITIAHRLHTIMDSDKVMVLDNGKIIECGSPEELLQIPGPFYFMAKEAGIENVNSTKF
For B1, the Michaelis constant (Km) in data set [1] amounted to 70 µM.
